Results published in PubChem BioAssay AID1259420 (Broad Institute, 2018).
“And” between values parts separate entries of the source, which are not always exact repeats. Equal entries are not always repeated. Records with an inconclusive call do not appear. The source made the active and inactive calls. No rule for the calls is given here.

What follows are molecules tested on Toxoplasma gondii growth in host cells, no IFN-gamma (assay: T. gondii intracellular growth, IFN-gamma absent, dose response, cell-based (AID 1259420);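 also: host cells were HeLa; final incubation lasted 72 hours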).

Row | Compound | AC50
1 | CC(C)CC#Cc1ccc([C@@H]2[C@@H](CO)N3C(=O)CN(C(=O)c4cccc(F)c4)C[C@@H]23)cc1 | 16.4 µM and 13.5 µM
2 | COc1ccc(-c2ccc3c(c2)[C@H]2[C@H](CCN2C(=O)c2cccc(F)c2)[C@@H](CO)N3)cc1 | 10.6 µM
3 | COc1cccc(NC(=O)N2CC(=O)N3[C@H](C2)[C@@H](c2ccc(C#CCC4CCCC4)cc2)[C@@H]3CO)c1 | 15.8 µM and 22.4 µM
4 | O=C(Nc1cccnc1)c1cc(-c2cnc(-c3ccccc3)nc2)cn1CC1CC1 | 27.9 µM and 19.8 µM
5 | C=CCN1C(=O)COC2(CCN(Cc3ccc(C)s3)CC2)C1C (stereo not drawn) | > 39 µM (inactive)
6 | CCN1CCN(Cc2ccc(Nc3nc(-c4ccc(OC)cc4)nc4ccccc34)cc2)CC1 | 13.5 µM
7 | Cc1nc(N2CCOCC2)nc2c1CCN(C(=O)C1CC1)CC2 | 21.7 µM
8 | COc1cccc(CNC(=O)c2cc3c(s2)CCN3C(=O)c2ccc(F)cc2)c1 | 2.74 µM
9 | Cc1ccccc1CN1C[C@@H]2c3nc(N4CCCC(C)C4)ncc3CS(=O)(=O)[C@H]2C1 (stereo partly drawn) | 28.2 µM
10 | O=C(O)CN1C[C@H]2c3ccccc3C(OCC3CC3)[C@@H]2C1 (stereo partly drawn) | > 39 µM (inactive)
11 | Cc1ccc(S(=O)(=O)Nc2ccc3c(c2)C(=O)N([C@H](C)CO)C[C@H](C)[C@H](CN(C)Cc2ccc(C(F)(F)F)cc2)O3)cc1 | 18.5 µM
12 | N#Cc1cccc(-c2ccc(C3[C@@H]4CN(C(=O)c5ccc6c(c5)OCO6)C[C@H]3N4)cc2)c1 (stereo partly drawn) | > 39 µM (inactive)
13 | COCC(=O)N1CC(=O)N2[C@H](CO)[C@@H](c3ccc(C#CC4CC4)cc3)[C@@H]2C1 | > 39 µM (inactive)
14 | O=C(Nc1ccc(F)cc1)N1CC(=O)N2[C@H](C1)[C@@H](c1ccc(-c3cccc(F)c3)cc1)[C@@H]2CO | 29.4 µM and 15.6 µM
15 | CCCCCCC(C)(C)c1ccc(C2CC(O)CCC2CCCO)c(O)c1 (stereo not drawn) | 17.9 µM
16 | CN(C)C(=O)COC[C@@H]1CC[C@H]2[C@H](CCN2CC2CC2)O1 | > 39 µM (inactive)
17 | Cc1nc2c(cnn2-c2ccccc2)c(=O)n1-c1cccc2ccccc12 | 10.9 µM
18 | CN(C)C(=O)c1ccc(-c2ccc3c(c2)[C@@H]2[C@@H](CCN2C(=O)C2CCCC2)[C@@H](CO)N3C)cc1 | 17.5 µM
19 | Cc1ccccc1-c1ccc([C@H]2[C@@H](CO)N3CCCCN(S(=O)(=O)Cc4ccccc4)C[C@H]23)cc1 | 22.7 µM
20 | COc1ccccc1NC(=O)N1C[C@H](O)COC[C@@H]2O[C@@H](CC(=O)N3CCC(Cc4ccccc4)CC3)CC[C@H]21 | > 39 µM (inactive)
21 | Cc1cccc(-c2ccc([C@H]3[C@@H](CO)N4CCCCN(S(=O)(=O)c5ccccc5F)C[C@H]34)cc2)c1 | 16.4 µM and 19.5 µM
22 | Cc1ccc(S(=O)(=O)N2CC[C@@H]3[C@H]2c2cc(-c4ccccc4F)ccc2N(C)[C@H]3CO)cc1 | 20.4 µM

Row | Compound | AC50
23 | COCC#Cc1ccc([C@@H]2[C@H]3CN(C(=O)C4CCCCC4)CC(=O)N3[C@H]2CO)cc1 | > 39 µM (inactive)
24 | O=C(c1ccc(F)cc1)N1CC(=O)N2[C@@H](CO)[C@H](c3ccc(C#CCC4CCCC4)cc3)[C@@H]2C1 | 18.6 µM and 22.6 µM
25 | O=C(CC1CC1)N1CC[C@@H]2[C@@H](CO)Nc3ccc(-c4ccc(F)cc4)cc3[C@@H]21 | 20.2 µM
26 | COc1ccccc1NC(=O)N1C[C@@H]2N[C@H](C1)C2c1ccc(/C=C/c2ccccc2)cc1 (stereo partly drawn) | 6.68 µM
27 | COc1cccc(S(=O)(=O)N2CCCCN3[C@H](CO)[C@H](c4ccc(-c5ccccc5)cc4)[C@H]3C2)c1 | 13.1 µM
28 | COc1ccc(-c2nc(N3CCC(N4CCCCC4)CC3)c3ccccc3n2)cc1 | > 39 µM (inactive)
29 | COc1cccc(C#Cc2ccc([C@@H]3[C@H](C#N)N(C(=O)c4ccccn4)[C@H]3CO)cc2)c1 | 19.9 µM
30 | CN1c2ccc(-c3ccc(C#N)cc3)cc2[C@@H]2[C@@H](CCN2S(=O)(=O)c2ccc(F)cc2)[C@@H]1CO | 13 µM
31 | CCc1cc(C(=O)Nc2ccc(C)cc2-c2cc(C)[nH]n2)c2c(C)noc2n1 | 18.2 µM
32 | Cc1cc(C)cc(S(=O)(=O)N2CCC3(CC2)NCCN=C3NCc2ccc(C(F)(F)F)cc2)c1 | 18.7 µM
33 | COc1cccc(-c2ccc(C3[C@@H]4CN(S(=O)(=O)Cc5ccccc5)C[C@H]3N4)cc2)c1 (stereo partly drawn) | 16.9 µM and 13.1 µM
34 | O=S1(=O)c2ccccc2O[C@H]2CCN(Cc3ccc(Cl)cc3)CC[C@H]2N1CC1CC1 | 22.5 µM
35 | C/C=C/c1ccc(C2[C@H]3CNC[C@@H]2N3C(=O)NC2CCCCC2)cc1 (stereo partly drawn) | 13.3 µM
36 | O=c1[nH]c(=O)n([C@H]2C[C@H](O)[C@@H](CO)O2)cc1F | 0.346 µM
37 | CN(C)C(=O)c1ccc(-c2ccc3c(c2)[C@@H]2[C@@H](CCN2C(=O)C2CCCC2)[C@H](CO)N3C)cc1 | 10.9 µM
38 | Cc1ccc(CNC2=NCCNC23CCN(S(=O)(=O)c2ccc4c(c2)CCCC4)CC3)cc1 | 23 µM
39 | CN1C(=O)c2cc(NC(=O)Cc3cccs3)ccc2OC[C@H]2O[C@H](CC(=O)NCc3ccc(-c4ccccc4)cc3)CC[C@@H]21 | 29.4 µM
40 | COC(=O)C1CC23C=CNC4CCC5(c6ccccc6NC15C2C)C43 (stereo not drawn) | 19.4 µM
41 | COc1cccc(S(=O)(=O)N2CCCCN3[C@H](CO)[C@@H](c4ccc(C#CCC(C)C)cc4)[C@@H]3C2)c1 | 19 µM
42 | NCCCCCCCCCCNS(=O)(=O)c1cccc2c(Cl)cccc12 | 15.9 µM
43 | CC(C)(Cc1ccc2ccccc2c1)NC[C@@H](O)COc1cccc(Cl)c1C#N | 12.3 µM
